We go through 5 molecules from ChEMBL document CHEMBL3217664, “Synthesis and biological evaluation of 4-chlorocolchicine derivatives as potent anticancer agents with broad effective dosage ranges” (Medchemcomm, 2012).

For series [1], the system named is HCT-116. The series can be described thus: Antitumor activity against human HCT116 cells xenografted in BALB/c mouse assessed as tumor growth inhibition at 5 mg/kg/day, iv administered on day 1, 5 and 9 relative to control. In kind it is functional. The conditions noted are these: HCT-116, 24 h, read-out: TGI. For orientation: In xenograft studies the graft and the host belong to different species.

Series [2] relates to HCT-116. The series can be described thus: Antitumor activity against human HCT116 cells xenografted in BALB/c mouse assessed as tumor growth inhibition at 10 mg/kg/day, iv administered on day 1, 5 and 9 relative to control. The series is classed as functional. The conditions noted are these: HCT-116, 24 h, read-out: TGI.
For series [3], the system named is Mus musculus. The series is described as follows: Toxicity in BALB/c mouse assessed as mortality at 5 mg/kg/day, iv administered on day 1, 5 and 9. In kind it is organism-based. The arrangement: route intravenous. The conditions noted are these: in vivo.
The test system of series [4] is Mus musculus. The series is described as follows: Toxicity in BALB/c mouse assessed as mortality at 10 mg/kg/day, iv administered on day 1, 5 and 9. The conditions noted are these: in vivo. In kind it is organism-based. Set-up: route intravenous.
In series [5] the test system is A549. The series can be described thus: Cytotoxicity against human A549 cells after 96 hrs by microplate reader analysis. The series is classed as functional, cell-based. The conditions noted are these: A549, 96 h.
Series [6] has as its system HT-29. The series can be described thus: Cytotoxicity against human HT-29 cells after 96 hrs by microplate reader analysis. The series is classed as functional, cell-based. The conditions noted are these: HT-29, 96 h.
The test system of series [7] is HCT-116. The series can be described thus: Cytotoxicity against human HCT116 cells after 96 hrs by microplate reader analysis. In kind it is functional, cell-based. The conditions noted are these: HCT-116, 96 h.
Series [8] has as its system Liver. The series can be described thus: Metabolic stability in BALB/c mouse liver microsomes at 1 umol/l by LC-MS/MS analysis. The conditions noted are these: 1 µM. The series is classed as ADME. For orientation: Liver microsomes are a subcellular fraction often used to study metabolism.
Series [9] has as its system HCT-116. The series is described as follows: Antitumor activity against human HCT116 cells xenografted in BALB/c mouse assessed as tumor growth inhibition at 20 mg/kg/day, iv administered on day 1, 5 and 9 relative to control. The series is classed as functional. The conditions noted are these: HCT-116, 24 h, read-out: TGI.
Series [10] relates to HCT-116. The series is described as follows: Antitumor activity against human HCT116 cells xenografted in BALB/c mouse assessed as tumor growth inhibition at 40 mg/kg/day, iv administered on day 1, 5 and 9 relative to control. In kind it is functional. The conditions noted are these: HCT-116, 24 h, read-out: TGI.
The test system of series [11] is Mus musculus. The series is described as follows: Toxicity in BALB/c mouse assessed as mortality at 20 mg/kg/day, iv administered on day 1, 5 and 9. The series is classed as organism-based. The arrangement: route intravenous. The conditions noted are these: in vivo.
Series [12] concerns Mus musculus. The series can be described thus: Toxicity in BALB/c mouse assessed as mortality at 40 mg/kg/day, iv administered on day 1, 5 and 9. The conditions noted are these: in vivo. Set-up: route intravenous. The series is classed as organism-based.
Series [13] has as its system HCT-116. The series can be described thus: Antitumor activity against human HCT116 cells xenografted in BALB/c mouse assessed as tumor growth inhibition at 50 mg/kg/day, iv administered on day 1, 5 and 9 relative to control. The conditions noted are these: HCT-116, 24 h, read-out: TGI. In kind it is functional.
In series [14] the test system is HCT-116. The series is described as follows: Antitumor activity against human HCT116 cells xenografted in BALB/c mouse assessed as tumor growth inhibition at 100 mg/kg/day, iv administered on day 1, 5 and 9 relative to control. In kind it is functional. The conditions noted are these: HCT-116, 24 h, read-out: TGI.
The subject of series [15] is Mus musculus. The series can be described thus: Toxicity in BALB/c mouse assessed as mortality at 50 mg/kg/day, iv administered on day 1, 5 and 9. The series is classed as organism-based. Set-up: route intravenous. The conditions noted are these: in vivo.
Series [16] deals with Mus musculus. The series can be described thus: Toxicity in BALB/c mouse assessed as mortality at 100 mg/kg/day, iv administered on day 1, 5 and 9. The arrangement: route intravenous. In kind it is organism-based. The conditions noted are these: in vivo.
Series [17] has as its system HCT-116. The series can be described thus: Antitumor activity against human HCT116 cells xenografted in BALB/c mouse assessed as tumor growth inhibition at 12.5 mg/kg/day, iv administered on day 1, 5 and 9 relative to control. In kind it is functional. The conditions noted are these: HCT-116, 24 h, read-out: TGI.
In series [18] the test system is HCT-116. The series can be described thus: Antitumor activity against human HCT116 cells xenografted in BALB/c mouse assessed as tumor growth inhibition at 25 mg/kg/day, iv administered on day 1, 5 and 9 relative to control. The conditions noted are these: HCT-116, 24 h, read-out: TGI. The series is classed as functional.
The subject of series [19] is Mus musculus. The series is described as follows: Toxicity in BALB/c mouse assessed as mortality at 12.5 mg/kg/day, iv administered on day 1, 5 and 9. The conditions noted are these: in vivo. In kind it is organism-based. Set-up: route intravenous.
The test system of series [20] is HCT-116. The series is described as follows: Antitumor activity against human HCT116 cells xenografted in BALB/c mouse assessed as tumor growth inhibition at 2.5 mg/kg/day, iv administered on day 1, 5 and 9 relative to control. The conditions noted are these: HCT-116, 24 h, read-out: TGI. In kind it is functional.
The test system of series [21] is Mus musculus. The series is described as follows: Toxicity in BALB/c mouse assessed as mortality at 2.5 mg/kg/day, iv administered on day 1, 5 and 9. In kind it is organism-based. Set-up: route intravenous. The conditions noted are these: in vivo.

The term IC50 denotes the midpoint of a concentration-inhibition curve. A lower IC50 goes with higher potency.

In the case of `COc1c(Cl)c2c(c(OC)c1OC)-c1ccc(OC)c(=O)cc1[C@@H](NC(=O)C(F)(F)F)CC2`, the inhibition in vivo at 5 mg/kg/day in series [1] was 30.6%. In series [2], the inhibition in vivo at 10 mg/kg/day was determined as 62.7%. The Activity result in series [3] and in series [4] was “Non-toxic” in each case. The IC50 in series [5] is 1.8 nM; in series [6], 1.5 nM; in [7] it was 1.5 nM. Moreover, the Stability in series [8] came out at 0.339 mL/min/mg.

As to `COc1c(Cl)c2c(c(OC)c1OC)-c1ccc(OC)c(=O)cc1[C@@H](NC(=O)CO)CC2`, in series [9], the inhibition in vivo at 20 mg/kg/day worked out at 43.6%. For the same molecule, the inhibition in vivo at 40 mg/kg/day in [10] was 66.7%. Further, the Activity result in series [11] and in series [12] was “Non-toxic” throughout. The IC50 in series [5] was determined as 16.3 nM; in series [6], 8 nM; in [7], 8.2 nM. In series [8], this molecule had a Stability of 0.001 mL/min/mg.

For the molecule `COc1c(Cl)c2c(c(OC)c1OC)-c1ccc(OC)c(=O)cc1[C@@H](NC(=O)C(C)(C)O)CC2`, in series [13], the inhibition in vivo at 50 mg/kg/day was 58.5%. In addition, the inhibition in vivo at 100 mg/kg/day in series [14] came out at 67.3%. The Activity result in [15] and in series [16] was “Non-toxic” each time. Further, the results for the IC50 in [5], in series [6] and in [7] were 19.4 nM, 7.8 nM and 8.1 nM, respectively. The molecule also yielded a Stability in series [8] of 0.005 mL/min/mg.

Turning to `CCC(=O)N[C@H]1CCc2c(Cl)c(OC)c(OC)c(OC)c2-c2ccc(OC)c(=O)cc21`, the inhibition in vivo at 12.5 mg/kg/day in series [17] was 57.3%. For the same molecule, in series [18], the inhibition in vivo at 25 mg/kg/day amounted to 76.1%. Further, in series [19], the Activity result was “Non-toxic”. For the same molecule, the IC50 in series [5] came to 7.8 nM; in [6], 3.3 nM; in series [7], 7.5 nM. Also, the Stability in series [8] was found to be 0.302 mL/min/mg.

Regarding `COc1c(Cl)c2c(c(OC)c1OC)-c1ccc(OC)c(=O)cc1[C@@H](NC(=O)c1cccc(N(C)C)c1)CC2`, in series [1], the inhibition in vivo at 5 mg/kg/day was 25.3%. In addition, in series [20], the inhibition in vivo at 2.5 mg/kg/day is 31.4%. Further, the Activity entry in [3] and in series [21] was “Non-toxic” each time. Further, the figures for the IC50 in series [5], in series [6] and in series [7] were 6.4 nM, 1.4 nM and 1.6 nM, respectively. This molecule also registered a Stability in [8] of 0.122 mL/min/mg.
